Data taken from patent publication US20100048530A1, “New 2-Azetidinone Derivatives As Cholesterol Absorption Inhibitors For The Treatment Of Hyperlipidaemic Conditions” (ASTRAZENECA AB, priority 2005, published 2010).

Tested on: C57BL/6 female mice
Test: In vivo testing of cholesterol absorption inhibitors (A)
Conditions: 0.2 μmol/kg, gavage, procedure A
Procedure: In Vivo Testing of Cholesterol Absorption Inhibitors (A)
C57BL/6 female mice were maintained on regular chow diet and housed in individual cages to collect faeces. Mice were fasted for 3 hours and then gavaged with vehicle or compound. Half an hour later the mice were gavaged with radiolabelled cholesterol. Six hours after the ^14C-cholesterol gavage blood samples were taken via the tail and plasma prepared to determine how much cholesterol were absorbed. 24 hours after the gavage of ^14C-cholesterol the mice were bled and plasma were prepared for analysis. Faeces were collected for 24 hours to assess absorption efficiency.

O=C(O)CNC(=O)[C@@H](CC1CCCCC1)NC(=O)CNC(=O)COc1ccc([C@@H]2[C@@H](SCC(O)c3ccc4c(c3)OCCO4)C(=O)N2c2ccc(F)cc2)cc1 (stereo partly drawn) [Example 1, N-({4-[(2R,3R)-3-{[2-(2,3-dihydro-1,4-benzodioxin-6-yl)-2-hydroxyethyl]thio}-1-(4-fluorophenyl)-4-oxoazetidin-2-yl]phenoxy}acetyl)glycyl-3-cyclohexyl-D-alanylglycine]
inhibition of 14C-cholesterol absorption: 43%
